The numbers were not newly measured in Sander's compilation of Henry's law constants, which cites them from elsewhere.

SMILES strings stand for the structures. Several values for one entry are separate records, joined by “and”; a condition that tells them apart may be missing. Equal values may be shown once.

The data set can be described thus: Henry solubility constant Hcp at 298.15 K (mol/(m3 Pa)). Conditions: cited value.
The mark [1] stands for this setting: reference: Barcelo and Hennion (1997).
Where [2] appears, read: reference: Burkholder et al. (2015).
[3] abbreviates: reference: Burkholder et al. (2019).
Setting [4] is: reference: Sander et al. (2006).
Where [5] appears, read: reference: Sander et al. (2011).
[6] abbreviates: reference: Fogg and Sangster (2003).

As to `CNC(=O)Oc1ccccc1OC(C)C` [propoxur], under setting [1], the “Henry solubility constant Hcp” value was 0.076.
In the case of `CNC` [dimethylamine], the “Henry solubility constant Hcp” value was 0.62 (reference: Brockbank (2013)), 0.55 under setting [2] and 0.55 under setting [3].
On to `C=C` [ethene], for which the “Henry solubility constant Hcp” value is 5.9e-05 under setting [2]; 5.9e-05 under setting [3]; 4.7e-05 (reference: Deno and Berkheimer (1960)); 4.7e-05 (reference: Hayduk (1994)); 5.9e-05 under setting [4]; 5.9e-05 under setting [5].
On to `CN(Cl)Cl` [N,N-dichloromethylamine], for which the “Henry solubility constant Hcp” value under setting [2] is 0.0033 and the “Henry solubility constant Hcp” value under setting [3] is 0.0033.
`Cc1cccnc1` [3-methylpyridine]: the “Henry solubility constant Hcp” value (reference: Brockbank (2013)) is 1.2.
Take `C[C@@H]1CCCC[C@@H]1C` [cis-1,2-dimethylcyclohexane]: the “Henry solubility constant Hcp” value (reference: Brockbank (2013)) was 2.6e-05.
Consider `c1cc2cccc3c4cccc5cccc(c(c1)c23)c54` [perylene], for which the “Henry solubility constant Hcp” value (reference: Mackay et al. (1992b)) was 330.
In the case of `CC(C)CC(=O)CC(C)C` [2,6-dimethyl-4-heptanone], the “Henry solubility constant Hcp” value (reference: Brockbank (2013)) was 0.013.
Consider `CCBr` [bromoethane], for which the “Henry solubility constant Hcp” value by setting is: (reference: Brockbank (2013)) 0.0013; under setting [3], 0.0013.
With `C/C=C\CCCC` [cis-2-heptene], the “Henry solubility constant Hcp” value (reference: Brockbank (2013)) was 2.4e-05.
For the compound `c1ccc2c(c1)-c1cccc3c1c-2cc1ccccc13` [benzo[b]fluoranthene], the “Henry solubility constant Hcp” value (reference: Brockbank (2013)) is 15.
As to `CC(=O)C(=O)O` [2-oxopropanoic acid], the “Henry solubility constant Hcp” value by setting is: under setting [2], 3100; under setting [3], 3100; under setting [4], 3100; under setting [5], 3100.
Regarding `Cc1ccccc1C` [1,2-dimethylbenzene], the “Henry solubility constant Hcp” value runs as follows: (reference: Brockbank (2013)) 0.002; under setting [6], 0.0024.
Regarding `CCCCCCCC(C)=O` [2-nonanone], the “Henry solubility constant Hcp” value (reference: Brockbank (2013)) was 0.032.
For the compound `CN(C)C(=O)Nc1ccccc1` [fenuron], the “Henry solubility constant Hcp” value under setting [1] is 36.
Regarding `N#Cc1c(Cl)cccc1Cl` [2,6-dichlorobenzenenitrile], the “Henry solubility constant Hcp” value under setting [1] is 0.015.
Turning to `FC(F)(Cl)Cl` [dichlorodifluoromethane], the “Henry solubility constant Hcp” value by setting is: (reference: Brockbank (2013)) 3.1e-05; under setting [2], 3e-05; under setting [3], 3e-05; (reference: Goldstein (1982)) 3.5e-06; under setting [4], 3e-05; under setting [5], 3e-05.
Regarding `C=COC(C)=O` [ethenyl ethanoate], the “Henry solubility constant Hcp” value was 0.02 (reference: Brockbank (2013)), 0.02 under setting [2], 0.02 under setting [3] and 0.017 (reference: Goldstein (1982)).
Take `CC(C)(C)C(O)(CCc1ccc(Cl)cc1)Cn1cncn1` (centres undefined) [tebuconazole]: the “Henry solubility constant Hcp” value under setting [1] was 1100.
As for `CC1CO1` (centres undefined) [1,2-epoxypropane], the “Henry solubility constant Hcp” value (reference: Goldstein (1982)) was 0.052 and 0.051.
As to `COP(=S)(OC)Oc1ccc(SC)c(C)c1` [fenthion], the “Henry solubility constant Hcp” value under setting [1] was 0.45.
In the case of `Cc1ccc([N+](=O)[O-])cc1` [4-nitrotoluene], the “Henry solubility constant Hcp” value was 0.89 (reference: Brockbank (2013)) and 0.16 (reference: Goldstein (1982)).
Take `CC(=O)OC(C)C` [2-propyl ethanoate]: for the setting “reference: Brockbank (2013)”, the “Henry solubility constant Hcp” value is 0.033.
For the compound `[Ne]` [neon], for the setting “reference: Clever (1979a)”, the “Henry solubility constant Hcp” value is 4.5e-06.
For `C1=CCCCCC1` [cycloheptene], the “Henry solubility constant Hcp” value (reference: Brockbank (2013)) is 0.0002.
For `FN(F)N(F)F` [dinitrogen tetrafluoride], the “Henry solubility constant Hcp” value runs as follows: under setting [2], 8.4e-06; under setting [3], 8.4e-06; under setting [5], 8.4e-06.
Turning to `CC(C)Br` [2-bromopropane], the “Henry solubility constant Hcp” value (reference: Brockbank (2013)) was 0.0009.
`Clc1ccc(Cl)cc1` [1,4-dichlorobenzene]: the “Henry solubility constant Hcp” value was 0.0038 (reference: Brockbank (2013)), 0.0045 under setting [6] and 0.0037 (reference: Goldstein (1982)).
As for `CC(C)OC(=O)N[C@@H](C(=O)N[C@H](C)c1nc2ccc(F)cc2s1)C(C)C` [benthiavalicarb isopropyl], under “reference: MacBean (2012b)”, the “Henry solubility constant Hcp” value was 110.
As to `COC(=O)OC` [carbonic acid, dimethyl ester], the “Henry solubility constant Hcp” value by setting is: (reference: Brockbank (2013)) 0.15; under setting [2], 0.16; under setting [3], 0.16.
Consider `CCS` [ethanethiol], for which the “Henry solubility constant Hcp” value is 0.0028 under setting [2], 0.0028 under setting [3], 0.0028 under setting [4] and 0.0028 under setting [5].
Take `Brc1ccc(Oc2cc(Br)c(Br)cc2Br)c(Br)c1` [2,2',4,4',5-pentabromodiphenyl ether]: under “reference: Wania and Dugani (2003)”, the “Henry solubility constant Hcp” value was 1.9.
As to `CCOP(=S)(OCC)SCSC(C)(C)C` [terbufos], the “Henry solubility constant Hcp” value under setting [1] is 0.0099.
